These results are taken from patent US8158783B2, “MTP inhibiting tetrahydro-naphthalene-1-carboxylic acid derivatives” (Janssen Pharmaceutica N.V., priority 2006, dated 2012).

Each structure is given as a SMILES string. pIC50: −log10 of the molar value.

One assay addresses MTP (Homo sapiens, UniProt P55157). The assay is described as follows: MTP assay (triglyceride transfer from donor to acceptor vesicles). As to conditions: MTP activity, [14C]-triglyceride transfer between vesicles, 37° C. It counts as biochemical. The procedure: MTP activity was measured using an assay similar to one described by J. R. Wetterau and D. B. Zilversmit in Chemistry and Physics of Lipids, 38, 205-222 (1985). To prepare the donor and acceptor vesicles, the appropriate lipids in chloroform were put into a glass test tube and dried under a stream of N2. A buffer containing 15 mM Tris-HCl pH 7.5, 1 mM EDTA, 40 mM NaCl, 0.02% NaN3 (assay buffer) was added to the dried lipid. The mixture was vortexed briefly and the lipids were then allowed to hydrate for 20 min on ice. Vesicles were then prepared by bath sonication (Branson 2200) at room temperature for maximum 15 min. Butylated hydroxytoluene was included in all vesicle preparations at a concentration of 0.1%. The lipid transfer assay mixture contained donor vesicles (40 nmol phosphatidylcholine, 7.5 mol % of cardiolipin and 0.25 mol % glycerol tri[1-^14C]-oleate), acceptor vesicles (240 nmol phosphatidylcholine) and 5 mg BSA in a total volume of 675 μl in a 1.5 ml microcentrifuge tube. Test compounds were added dissolved in DMSO (0.13% final concentration). After 5 minutes of pre-incubation at 37° C., the reaction was started by the addition of MTP in 100 μl dialysis buffer. The reaction was stopped by the addition of 400 μl DEAE-52 cellulose pre-equilibrated in 15 mM Tris-HCl pH 7.5, 1 mM EDTA, 0.02% NaN3 (1:1, vol/vol). The mixture was agitated for 4 min and centrifuged for 2 min at maximum speed in an Eppendorf centrifuge (4° C.) to pellet the DEAE-52-bound donor vesicles. An aliquot of the supernatant containing the acceptor liposomes was counted and the [^14C]-counts were used to calculate the percent triglyceride transfer from donor to acceptor vesicles.

Assay [1] relates to secretion of ApoB, HepG2 cells. Put plainly: Quantification of the secretion of ApoB in HepG2 cells. It counts as cell-based. Conditions: Homo sapiens, 24 hours of incubation, pIC50 = -log IC50. The procedure:
HepG2 cells were cultured in 24-well plates in MEM Rega 3 containing 10% fetal calf serum. At 70% confluency, the medium was changed and the test compound or carrier (DMSO, 0.4% final concentration) was added. After 24 hours of incubation, the medium was transferred to Eppendorf tubes and cleared by centrifugation. A sheep antibody directed against either apoB was added to the supernatant and the mixture was kept at 8° C. for 24 hours. Then, rabbit anti-sheep antibody was added and the immune complex was allowed to precipitate for 24 hours at 8° C. The immunoprecipitate was pelleted by centrifugation for 25 minutes at 1320 g and washed twice with a buffer containing 40 mM Mops, 40 mM NaH2PO4, 100 mM NaF, 0.2 mM DTT, 5 mM EDTA, 5 mM EGTA, 1% Triton-X-100, 0.5% sodium deoxycholate (DOC), 0.1% SDS, 0.2 mM leupeptin and 0.2 mM PMSF. Radioactivity in the pellet was quantified by liquid scintillation counting.

MTP, sequence (P55157 19-894, species assumed): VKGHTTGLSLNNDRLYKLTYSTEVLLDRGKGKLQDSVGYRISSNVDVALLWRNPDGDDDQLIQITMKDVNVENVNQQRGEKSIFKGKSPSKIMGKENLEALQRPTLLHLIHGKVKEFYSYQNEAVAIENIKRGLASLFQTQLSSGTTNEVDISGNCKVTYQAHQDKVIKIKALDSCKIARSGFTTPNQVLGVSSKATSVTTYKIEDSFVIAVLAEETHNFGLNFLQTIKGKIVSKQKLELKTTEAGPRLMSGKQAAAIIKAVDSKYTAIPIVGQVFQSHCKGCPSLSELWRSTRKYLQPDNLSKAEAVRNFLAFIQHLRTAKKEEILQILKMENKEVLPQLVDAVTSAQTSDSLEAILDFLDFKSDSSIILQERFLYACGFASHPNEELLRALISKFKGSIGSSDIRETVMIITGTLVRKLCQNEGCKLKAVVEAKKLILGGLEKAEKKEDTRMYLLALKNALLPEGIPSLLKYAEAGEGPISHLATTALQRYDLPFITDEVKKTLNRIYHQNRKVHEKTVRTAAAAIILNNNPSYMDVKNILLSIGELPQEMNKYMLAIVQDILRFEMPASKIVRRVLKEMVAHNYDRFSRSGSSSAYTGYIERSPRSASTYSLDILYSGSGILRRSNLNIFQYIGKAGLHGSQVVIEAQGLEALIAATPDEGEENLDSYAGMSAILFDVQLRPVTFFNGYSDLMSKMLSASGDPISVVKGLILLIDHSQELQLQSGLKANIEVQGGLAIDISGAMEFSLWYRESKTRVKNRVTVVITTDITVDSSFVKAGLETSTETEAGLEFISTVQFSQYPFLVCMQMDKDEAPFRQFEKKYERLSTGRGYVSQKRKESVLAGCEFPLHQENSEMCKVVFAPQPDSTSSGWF
MTP, sequence (P07237 18-508 partner, species assumed): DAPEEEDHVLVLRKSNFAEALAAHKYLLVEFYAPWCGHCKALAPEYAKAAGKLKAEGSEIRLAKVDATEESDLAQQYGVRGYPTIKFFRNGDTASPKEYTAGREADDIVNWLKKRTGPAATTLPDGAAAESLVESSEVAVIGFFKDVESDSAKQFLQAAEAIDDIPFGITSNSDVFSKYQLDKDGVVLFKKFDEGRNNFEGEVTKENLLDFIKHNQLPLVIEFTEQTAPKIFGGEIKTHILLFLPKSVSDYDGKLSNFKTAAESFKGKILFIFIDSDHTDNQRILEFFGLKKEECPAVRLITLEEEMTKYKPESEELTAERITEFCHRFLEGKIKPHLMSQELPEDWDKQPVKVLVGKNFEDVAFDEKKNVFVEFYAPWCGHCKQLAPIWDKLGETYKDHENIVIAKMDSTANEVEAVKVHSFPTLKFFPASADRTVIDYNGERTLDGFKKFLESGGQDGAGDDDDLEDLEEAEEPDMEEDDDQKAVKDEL

On to `CCOC(=O)[C@@]1(c2ccccc2)CC[C@H](C(=O)NCCNC(=O)c2ccccc2OC)c2ccccc21` (stereo in doubt) [compound 25], for which the values for the pIC50 (against MTP; in assay [1]) were 8.19 and 7.76, respectively.

Turning to `CCOC(=O)[C@]1(c2ccccc2)CC[C@@H](C(=O)NCCNC(=O)c2ccccc2OC)c2ccccc21` (stereo in doubt) [compound 26], the pIC50 at MTP is 6.76; in assay [1], 6.25.

For the compound `CCOC(=O)[C@@]1(c2ccccc2)CC[C@H](C(=O)N(C)CCCNC(=O)c2ccccc2OC)c2ccccc21` (stereo in doubt) [compound 28], the figures for the negative-log IC50 (pIC50) (at MTP; in assay [1]) were 8.14 and 7.02, respectively.

`CCOC(=O)[C@]1(c2ccccc2)CC[C@@H](C(=O)NCCNC(=O)c2ccccc2)c2ccccc21` [compound 1] gave a pIC50 against MTP of 5.90.

For the compound `CCOC(=O)[C@]1(c2ccccc2)CC[C@@H](C(=O)NCCNC(=O)c2ccccc2OC)c2ccccc21` [compound 2], the pIC50 on MTP is 6.39.

Turning to `CCOC(=O)[C@]1(c2ccccc2)CC[C@@H](C(=O)NCCNC(=O)c2ccccc2-c2ccc(C(F)(F)F)cc2)c2ccccc21` [compound 3], the pIC50 at MTP was 6.68.

Turning to `CCOC(=O)[C@]1(c2ccccc2)CC[C@@H](C(=O)NCCCNC(=O)c2ccccc2)c2ccccc21` [compound 4], the values for the pIC50 (on MTP; in assay [1]) were 7.65 and 6.50, respectively.

`CCOC(=O)[C@]1(c2ccccc2)CC[C@@H](C(=O)NCCCNC(=O)c2ccccc2OC)c2ccccc21` [compound 5]: the pIC50 against MTP is 8.03; in assay [1], 6.72.

On to `CCOC(=O)[C@]1(c2ccccc2)CC[C@@H](C(=O)NCCCNC(=O)c2ccccc2-c2ccc(C(F)(F)F)cc2)c2ccccc21` [compound 6], for which the pIC50 was 8.02 at MTP and 7.37 in assay [1].

Consider `CCOC(=O)[C@]1(c2ccccc2)CC[C@@H](C(=O)N(C)CCNC(=O)c2ccccc2)c2ccccc21` [compound 7], for which the pIC50 on MTP is 7.07; in assay [1], less than 6.00.

Turning to `CCOC(=O)[C@]1(c2ccccc2)CC[C@@H](C(=O)N(C)CCNC(=O)c2ccccc2OC)c2ccccc21` [compound 8], the negative logarithm of the IC50 (pIC50) is 7.57 on MTP and less than 6.00 in assay [1].

With `CCOC(=O)[C@]1(c2ccccc2)CC[C@@H](C(=O)N(C)CCNC(=O)c2ccccc2-c2ccc(C(F)(F)F)cc2)c2ccccc21` [compound 9], the negative logarithm of the IC50 (pIC50) at MTP is 7.72; in assay [1], 6.89.

As for `CCOC(=O)[C@]1(c2ccccc2)CC[C@@H](C(=O)N(C)CCCNC(=O)c2ccccc2)c2ccccc21` [compound 10], the figures for the pIC50 (at MTP; in assay [1]) were 8.00 and 6.13, respectively.

`CCOC(=O)[C@]1(c2ccccc2)CC[C@@H](C(=O)N(C)CCCNC(=O)c2ccccc2OC)c2ccccc21` [compound 11] showed a pIC50 in assay [1] of 6.18.

`CCOC(=O)[C@]1(c2ccccc2)CC[C@@H](C(=O)N(C)CCCNC(=O)c2ccccc2-c2ccc(C(F)(F)F)cc2)c2ccccc21` [compound 12]: the negative logarithm of the IC50 (pIC50) was 8.20 on MTP and 7.63 in assay [1].

For `CCOC(=O)[C@]1(c2ccccc2)CC[C@H](C(=O)NCCNC(=O)c2ccccc2)c2ccccc21` [compound 13], the pIC50 against MTP was 5.27.

`CCOC(=O)[C@]1(c2ccccc2)CC[C@H](C(=O)NCCNC(=O)c2ccccc2OC)c2ccccc21` [compound 14] had a negative logarithm of the IC50 (pIC50) at MTP of 5.60.

In turn, `CCOC(=O)[C@]1(c2ccccc2)CC[C@H](C(=O)NCCNC(=O)c2ccccc2-c2ccc(C(F)(F)F)cc2)c2ccccc21` [compound 15] showed a pIC50 against MTP of 5.56.

`CCOC(=O)[C@]1(c2ccccc2)CC[C@H](C(=O)NCCCNC(=O)c2ccccc2)c2ccccc21` [compound 16]: the pIC50 was less than 7.00 on MTP and 6.10 in assay [1].

In the case of `CCOC(=O)[C@]1(c2ccccc2)CC[C@H](C(=O)NCCCNC(=O)c2ccccc2OC)c2ccccc21` [compound 17], the pIC50 was 7.43 against MTP and 6.38 in assay [1].

With `CCOC(=O)[C@]1(c2ccccc2)CC[C@H](C(=O)NCCCNC(=O)c2ccccc2-c2ccc(C(F)(F)F)cc2)c2ccccc21` [compound 18], the pIC50 on MTP was 7.21; in assay [1], 6.51.

As for `CCOC(=O)[C@]1(c2ccccc2)CC[C@H](C(=O)N(C)CCNC(=O)c2ccccc2)c2ccccc21` [compound 19], the pIC50 against MTP is 6.88; in assay [1], 6.64.

Turning to `CCOC(=O)[C@]1(c2ccccc2)CC[C@H](C(=O)N(C)CCNC(=O)c2ccccc2OC)c2ccccc21` [compound 20], the pIC50 on MTP was 7.15; in assay [1], less than 6.00.

Regarding `CCOC(=O)[C@]1(c2ccccc2)CC[C@H](C(=O)N(C)CCNC(=O)c2ccccc2-c2ccc(C(F)(F)F)cc2)c2ccccc21` [compound 21], the figures for the pIC50 (against MTP; in assay [1]) were 7.32 and 6.62, respectively.

Consider `CCOC(=O)[C@]1(c2ccccc2)CC[C@H](C(=O)N(C)CCCNC(=O)c2ccccc2)c2ccccc21` [compound 22], for which the pIC50 on MTP was 7.79; in assay [1], 6.18.

Turning to `CCOC(=O)[C@]1(c2ccccc2)CC[C@H](C(=O)N(C)CCCNC(=O)c2ccccc2OC)c2ccccc21` [compound 23], the results for the pIC50 (against MTP; in assay [1]) were 7.93 and 6.22, respectively.

On to `CCOC(=O)[C@]1(c2ccccc2)CC[C@H](C(=O)N(C)CCCNC(=O)c2ccccc2-c2ccc(C(F)(F)F)cc2)c2ccccc21` [compound 24], for which the values for the negative-log IC50 (pIC50) (against MTP; in assay [1]) were 8.21 and 7.63, respectively.

Regarding `CCCOC(=O)[C@]1(c2ccccc2)CC[C@@H](C(=O)N2CCC(NC(=O)c3ccccc3OC)C2)c2ccccc21` (stereo partly shown) [compound 29], the results for the pIC50 (against MTP; in assay [1]) were 7.40 and 6.99, respectively.

Take `CCCOC(=O)[C@]1(c2ccccc2)CCC(C(=O)N2CC[C@@H](NC(=O)c3cccnc3OC)C2)c2ccccc21` (stereo partly shown) [compound 30]: the pIC50 was 7.63 at MTP and 7.12 in assay [1].

On to `COC(=O)CCNC(=O)[C@]1(c2ccccc2)CC[C@@H](C(=O)N(C)CCCNC(=O)c2ccccc2OC)c2ccccc21` [compound 31], for which the pIC50 was 7.19 at MTP and less than 6.00 in assay [1].

Take `COC(=O)CCNC(=O)[C@]1(c2ccccc2)CC[C@@H](C(=O)N(C)CCCNC(=O)c2cccnc2OC)c2ccccc21` [compound 32]: the values for the pIC50 (on MTP; in assay [1]) were 6.78 and less than 6.00, respectively.

Turning to `COC(=O)CCNC(=O)[C@]1(c2ccccc2)CC[C@@H](C(=O)N2CCCC(NC(=O)c3cccnc3OC)CC2)c2ccccc21` (stereo partly shown) [compound 33], the pIC50 on MTP is 7.10; in assay [1] it was less than 6.00.

`CCCOC(=O)[C@]1(c2ccccc2)CC[C@@H](C(=O)N2CCCC(NC(=O)c3ccccc3OC)CC2)c2ccccc21` (stereo partly shown) [compound 42]: the pIC50 on MTP is 7.64; in assay [1], 6.54.

In turn, `COC(=O)CCNC(=O)[C@]1(c2ccccc2)CC[C@@H](C(=O)N2CCOC(CNC(=O)c3cccnc3O)C2)c2ccccc21` (stereo partly shown) [compound 43] gave a pIC50 against MTP of less than 6.00.

As to `COC(=O)CCNC(=O)[C@]1(c2ccccc2)CC[C@@H](C(=O)N2CCCC(NC(=O)c3ccccc3OC)CC2)c2ccccc21` (stereo partly shown) [compound 44], the pIC50 at MTP is 7.28.
